The values that follow come from PMC11876601 (Molecular Systems Biology, 2025).

Read-outs that look alike come from different tables or passages of the source.

One experiment addresses T1, CSNK2A2 (Homo sapiens, UniProt P19784).
T1 construct: endogenous in cells; host or cells: AsPC-1 lysate
As to the kind of experiment: Kinobeads competition pulldown in AsPC-1 lysate. The format is binding.

A further experiment has as its target T2, ACVR1 (Homo sapiens, UniProt Q04771).
T2 construct: endogenous in cells; host or cells: AsPC-1 lysate
As to the kind of experiment: Kinobeads competition pulldown in AsPC-1 lysate. The format is binding.

The target of another experiment is T3, AAK1 (Homo sapiens, UniProt Q2M2I8).
T3 construct: endogenous in cells; host or cells: AsPC-1 lysate
As to the kind of experiment: Kinobeads competition pulldown in AsPC-1 lysate. In kind it is binding.

A further experiment addresses T4, ACVR2 (Homo sapiens).
T4 construct: endogenous in cells; host or cells: AsPC-1 lysate
The experiment in a line: Kinobeads competition pulldown in AsPC-1 lysate. The note with it: read-out: KDapp. The format is binding.

The subject of the next experiment is TAOK3. Further details: method as in Reinecke et al. (2023). The note with it: TAOK3, 5 cell line mix lysate, Kinobeads ε, ref Reinecke et al. (2023), cited from earlier work.
For another experiment, the system named is CDK2. Also on record: method as in Klaeger et al. (2017). The note with it: CDK2, 4 cell line mix lysate, Kinobeads y, ref Klaeger et al. (2017); cited from earlier work.
The next experiment deals with MAP3K6. Further details: method as in Klaeger et al. (2017). The note with it: lysate 4 cell line mix (Colo205, K-562, MV-4-11, and SK-N-BE(2)), Kinobeads y, ref Klaeger et al. (2017); cited from earlier work.
The next experiment deals with T5, GSKA (Homo sapiens, UniProt P49840).
T5 construct: endogenous in cells; host or cells: AsPC-1 lysate
As to the kind of experiment: Kinobeads competition pulldown in AsPC-1 lysate. In kind it is binding. The note with it: read-out: KDapp.

A further experiment has as its target T6, GSKB (Homo sapiens, UniProt P49841).
T6 construct: endogenous in cells; host or cells: AsPC-1 lysate
The experiment in a line: Kinobeads competition pulldown in AsPC-1 lysate. In kind it is binding. The note with it: read-out: KDapp.

In a further experiment the test system is Dan-G cells. The experiment in a line: Drug combination viability screen (ATPlite, 72 h). The format is cell-based, human. Further details: AUC: unit not given beside the values; Reponse: unit not given here. The note with it: for EC50: Homo sapiens. The method, then: (§1) Cell viability was assessed by measuring ATP levels to indicate metabolic activity.
(§2) Afterward, small amounts were transferred to 384-well intermediate plates (Greiner Bio-One GmbH, Germany). […] For drug combination screening, 1000 to 5000 cells were seeded into 384-well plates (CulturPlate™, Perkin Elmer, MA, USA) using a Multidrop™ Combi Reagent Dispenser (Thermo Scientific, MA, USA) in 50 µl medium per well 24 h prior to drug treatment (seeding densities see Appendix Table S1). […] The final DMSO concentration in each well was 0.2%. […] Eight wells per plate without library drug served as negative controls, and sixteen wells per plate containing 5 µM Staurosporine served as positive controls. Control plates not containing any drug were used to correct for incubation effects, and data quality was assessed by calculation of Z-prime of positive and negative controls according to1 Z-prime=1−3SDpos+3SDneg/[…] where SD is the standard deviation. […] Dose–response curves from the experimental and hypothetical data were compared, and shifts in AUC were used to describe combination effects (AUC∆ = AUChypothetical − AUCexperimental). […] Only combinations with R^2 > 0.8 in both conditions were considered in the synergy analysis.

In the next experiment the test system is FAMPAC cells. The experiment in a line: Drug combination viability screen (ATPlite, 72 h). The format is cell-based, human. Further details: AUC: unit not given beside the values; Reponse: unit not given here. The note with it: for EC50: Homo sapiens. The method, then: as §1, §2
Where [1] appears, read: Kinobeads residual binding curve.
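For AUC in this document: area under vehicle-normalized viability curve scaled 0 to 100 percent.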
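For Curve bottom in this document: fraction of vehicle control viability from four-parameter log-logistic fit.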

As to `CNCc1ccc(-c2cc(-c3nc(-c4ccc(S(=O)(=O)C(C)C)cc4)cnc3N)on2)cc1` [Berzosertib], the Kd was 0.219 µM on CSNK2A2 (AsPC-1 lysate, read-out: KDapp); 0.00083 µM on ACVR1 (AsPC-1 lysate, read-out: KDapp); 0.0193 µM at AAK1 (AsPC-1 lysate, read-out: KDapp); below 0.001 µM on ACVR2 (Homo sapiens). For the same molecule, the figures for the EC50 on CSNK2A2 (setting [1]), at ACVR1 (setting [1]) and on AAK1 (setting [1]) were 0.406 µM, 0.00211 µM and 0.0367 µM, respectively.
For the molecule `COc1cc(N2CCC(N3CCN(C)CC3)CC2)ccc1Nc1ncc(Cl)c(Nc2ccccc2P(C)(C)=O)n1` [Brigatinib], in the experiment with TAOK3, the EC50 is 0.69 µM and the pKDapp was 6.27. The Kd at TAOK3 (read-out: KDapp) was 0.534 µM.
For `C[C@]12O[C@H](C[C@]1(O)CO)n1c3ccccc3c3c4c(c5c6ccccc6n2c5c31)CNC4=O` [Lestaurtinib], the EC50 in the experiment with CDK2 was […]; in the experiment with MAP3K6 it was 0.458 µM.
Take `Nc1nn2cc(F)cnc2c1C(=O)Nc1cncc(F)c1N1CCC(C(=O)N2CCN(C3COC3)CC2)CC1` [Gartisertib]: the Kd on GSKA and on GSKB was below 0.01 µM throughout.
As for `Nc1ccn([C@@H]2O[C@H](CO)[C@@H](O)C2(F)F)c(=O)n1` [GEM, Gemcitabine], the Reponse with Dan-G cells (Dan-G, R1, 13.72 nM) is 414760; in the experiment on Dan-G cells (Dan-G, R1, 41.15 nM), 446720; in the experiment on Dan-G cells (Dan-G, R1, […] nM), 403560; with Dan-G cells (Dan-G, R1, 370.37 nM), 418200; with Dan-G cells (Dan-G, R1, 1111.11 nM), 322600; with Dan-G cells (Dan-G, R1, 3333.33 nM) it was 330080. Further, the Reponse in the experiment with Dan-G cells (Dan-G, R1, 10000 nM) turned out to be 365160; with Dan-G cells (Dan-G, R2, 13.72 nM) it was 688800; in the experiment on Dan-G cells (Dan-G, R2, 41.15 nM) it was 616960; in the experiment with Dan-G cells (Dan-G, R2, […] nM), 613120; with Dan-G cells (Dan-G, R2, 370.37 nM), 664240; with Dan-G cells (Dan-G, R2, 1111.11 nM) it was 563000. The Reponse with Dan-G cells (Dan-G, R2, 3333.33 nM) came out at 536360; in the experiment with Dan-G cells (Dan-G, R2, 10000 nM), 535080; with FAMPAC cells (FAMPAC, R1, 13.72 nM), 385920; in the experiment on FAMPAC cells (FAMPAC, R1, 41.15 nM), 215680; with FAMPAC cells (FAMPAC, R1, […] nM) it was 157840; in the experiment on FAMPAC cells (FAMPAC, R1, 370.37 nM), 175320. For the same molecule, the Reponse in the experiment with FAMPAC cells (FAMPAC, R1, 1111.11 nM) was 225320; with FAMPAC cells (FAMPAC, R1, 3333.33 nM) it was 238760; in the experiment with FAMPAC cells (FAMPAC, R1, 10000 nM), 195520; in the experiment with FAMPAC cells (FAMPAC, R2, 13.72 nM) it was 606360; in the experiment on FAMPAC cells (FAMPAC, R2, 41.15 nM), 377000; with FAMPAC cells (FAMPAC, R2, […] nM), 333400. Besides, the Reponse in the experiment with FAMPAC cells (FAMPAC, R2, 370.37 nM) is listed as 317560; in the experiment with FAMPAC cells (FAMPAC, R2, 1111.11 nM) it was 328240; in the experiment on FAMPAC cells (FAMPAC, R2, 3333.33 nM), 349400; in the experiment with FAMPAC cells (FAMPAC, R2, 10000 nM), 314920. Besides, the Curve bottom in the experiment on Dan-G cells (Dan-G, GEM curve fit) turned out to be 0.11; in the experiment on FAMPAC cells (FAMPAC, GEM curve fit), 0.05. Further, the Curve effect size in the experiment on Dan-G cells (Dan-G, GEM curve fit) is listed as 0.89; with FAMPAC cells (FAMPAC, GEM curve fit), 0.95. Moreover, the Curve slope was 3.23 in the experiment on Dan-G cells (Dan-G, GEM curve fit) and 2.01 in the experiment with FAMPAC cells (FAMPAC, GEM curve fit). The Curve top in the experiment with Dan-G cells (Dan-G, GEM curve fit) is 0.99; with FAMPAC cells (FAMPAC, GEM curve fit) it was 0.99. Moreover, the AUC in the experiment on Dan-G cells (Dan-G, GEM curve fit, in %) came to 25.98; with FAMPAC cells (FAMPAC, GEM curve fit, in %), 25.43. The EC50 is 0.0011 µM in the experiment on Dan-G cells (read-out: EC50), 0.0011 µM in the experiment with Dan-G cells (read-out: pEC50 (converted)), 0.00171 µM in the experiment on FAMPAC cells (read-out: EC50) and 0.0017 µM in the experiment on FAMPAC cells (read-out: pEC50 (converted)).
